Data from US8822471B2, “Compounds, pharmaceutical compositions and uses thereof” (Boehringer Ingelheim International GmbH, priority 2011, dated 2014).

These compounds were tested against T1, human GPR119 (Homo sapiens, UniProt Q8TDV5) (assay: AlphaScreen cAMP assay in MIN6 cells stably transfected with human GPR119). Conditions: Min-6/hGPR119 cells, AlphaScreen cAMP Assay Kit, 45 minutes incubation at room temperature.
T1 construct: expression vector for human GPR119 cDNA (Acc. No. NP_848566); expressed in transfected cells
T1 sequence (Q8TDV5 1-335): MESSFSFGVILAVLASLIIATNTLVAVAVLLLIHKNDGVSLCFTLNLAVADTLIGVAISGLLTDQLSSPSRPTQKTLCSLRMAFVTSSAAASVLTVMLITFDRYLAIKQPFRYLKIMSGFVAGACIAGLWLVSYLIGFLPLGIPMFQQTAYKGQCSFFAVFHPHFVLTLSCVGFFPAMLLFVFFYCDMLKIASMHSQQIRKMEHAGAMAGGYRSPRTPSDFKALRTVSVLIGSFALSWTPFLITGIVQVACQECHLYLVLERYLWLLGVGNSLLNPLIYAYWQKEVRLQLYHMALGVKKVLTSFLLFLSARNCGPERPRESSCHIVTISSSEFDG
Format: cell-based
How it was run: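 MIN6 cells stably expressing human GPR119, seeded 24 h, then stimulated 45 min at room temperature with compound in pH 7.4 Hepes-buffered salt solution with 0.5 mM IBMX, 0.1% BSA, 1% DMSO. Intracellular cAMP measured by AlphaScreen.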

For `Cc1cnc(N2CCC(N(C(=O)c3ccc(-c4cnco4)cc3)C3CC3)CC2)nc1` [Example 89, N-Cyclopropyl-N-[1-(5-methyl-pyrimidin-2-yl)-piperidin-4-yl]-4-oxazol-5-yl-benzamide], which EC50 is on record?
The EC50 was 34 nM.

These compounds were tested against T2, mutant form of the human GPR119 receptor (Homo sapiens, UniProt Q8TDV5, S329A/T327A) (assay: LANCE cAMP-384 assay in HEK293 cells stably expressing a mutant form of the human GPR119 receptor). Conditions: HEK293 cells stably expressing mutant human GPR119, LANCE cAMP-384 Kit, 20 min at 37° C.
T2 construct: T327 & S329 changed to alanines; expressed in transfected cells
T2 sequence (Q8TDV5 2-335 T327A/S329A): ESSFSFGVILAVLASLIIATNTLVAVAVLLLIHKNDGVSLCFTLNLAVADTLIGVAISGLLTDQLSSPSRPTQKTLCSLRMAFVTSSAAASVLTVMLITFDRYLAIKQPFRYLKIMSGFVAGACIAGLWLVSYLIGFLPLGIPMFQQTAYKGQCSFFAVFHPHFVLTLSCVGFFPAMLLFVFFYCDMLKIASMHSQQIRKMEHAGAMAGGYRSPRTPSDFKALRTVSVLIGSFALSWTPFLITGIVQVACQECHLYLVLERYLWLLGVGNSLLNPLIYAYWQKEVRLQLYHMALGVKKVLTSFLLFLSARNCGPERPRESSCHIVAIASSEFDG
Format: cell-based
Method: Quantitative detection of cAMP accumulation from cells expressing human GPR119 receptor is achieved using Perkin Elmer's LANCE cAMP-384 Kit (Cat#AD0264) according to the manufacturer's protocol. Briefly, HEK293 cells stably expressing a mutant form of the human GPR119 receptor as assay tool (Methionine 1 replaced with the amino acid sequence […], and T327 & S329 changed to alanines; SEQ ID No. 1) are grown to 50-70% confluency in cell culture media (DMEM, 10% heat inactivated Fetal Bovine Serum, 50 I.U./mL penicillin, 50 μg/mL streptomycin, 10 mM HEPES, 20 μg/mL G418 Sulfate). On the day of the assay, GPR119 stable HEK293 cells are lifted from the tissue culture plate and 1000 cells/well are incubated along with various concentrations of test compounds for 20 min at 37° C. Detection Buffer (50 mM HEPES, 10 mM calcium chloride, 0.35% Triton X-100, 1 mg/mL BSA) containing cAMP-specific antibody is then added to all wells and allowed to equilibrate in the dark for 10 minutes at room temperature. Upon equilibration, Detection Buffer containing europium-labeled cAMP tracer complex is added to all wells and allowed to react for 1 hour at room temperature. After 1 hour, bound europium-labeled cAMP tracer is measured using a Perkin Elmer Envision plate reader. The quantity of cAMP generated in each well is derived from a standard curve. EC50 is determined using nonlinear regression analysis of the cAMP values over a range of agonist concentration (12 points spanning the range from 30 μM to 100 pM).

`Cc1nnnn1-c1ccc(C(=O)N(C2CC2)[C@@H]2CCN(c3ccc(C(F)(F)F)cn3)C[C@@H]2F)cc1` (single isomer, unassigned) [Example 120] was tested. Which EC50 did it give?
The EC50 was 745 nM.

How did the EC50 turn out when `O=C(c1ccc(-n2cnnn2)c(F)c1)N(C1CC1)[C@@H]1CCN(c2ccc(C(F)(F)F)cn2)C[C@@H]1F` (single isomer, unassigned) [Example 121] was run?
The EC50 was 134 nM.

`Cc1nccn1-c1ccc(C(=O)N(C2CC2)C2CCN(c3ncc(C(F)(F)F)cc3F)CC2)cc1` [Example 90, N-Cyclopropyl-N-(3′-fluoro-5′-trifluoromethyl-3,4,5,6-tetrahydro-2H-[1,2′]bipyridinyl-4-yl)-4-(2-methyl-imidazol-1-yl)-benzamide] was tested. Which EC50 did it give?
The EC50 was 149 nM.

With `O=C(c1ccc(-n2cncn2)cc1)N(C1CC1)C1CCN(c2ncc(C(F)(F)F)cc2F)CC1` [Example 91, N-Cyclopropyl-N-(3′-fluoro-5′-trifluoromethyl-3,4,5,6-tetrahydro-2H-[1,2′]bipyridinyl-4-yl)-4-[1,2,4]triazol-1-yl-benzamide] as the compound, how does the EC50 read?
The EC50 was 48 nM.

For `Cc1ncnn1-c1ccc(C(=O)N(C2CC2)C2CCN(c3ncc(C(F)(F)F)cc3F)CC2)cc1` [Example 92, N-Cyclopropyl-N-(3′-fluoro-5′-trifluoromethyl-3,4,5,6-tetrahydro-2H-[1,2′]bipyridinyl-4-yl)-4-(5-methyl-[1,2,4]triazol-1-yl)-benzamide], which EC50 is on record?
The EC50 was 265 nM.

With `Cc1nccn1-c1ccc(C(=O)N(C2CC2)C2CCN(c3ncc(C(F)(F)F)cc3F)CC2)cc1F` [Example 93, N-Cyclopropyl-3-fluoro-N-(3′-fluoro-5′-trifluoromethyl-3,4,5,6-tetrahydro-2H-[1,2′]bipyridinyl-4-yl)-4-(2-methyl-imidazol-1-yl)-benzamide] as the compound, how does the EC50 read?
Its EC50 is 168 nM.

How did the EC50 turn out when `O=C(c1ccc(-n2cncn2)c(F)c1)N(C1CC1)C1CCN(c2ncc(C(F)(F)F)cc2F)CC1` [Example 94, N-Cyclopropyl-3-fluoro-N-(3′-fluoro-5′-trifluoromethyl-3,4,5,6-tetrahydro-2H-[1,2′]bipyridinyl-4-yl)-4-[1,2,4]triazol-1-yl-benzamide] was run?
The EC50 was 10 nM.

How did the EC50 turn out when `Cc1ncnn1-c1ccc(C(=O)N(C2CC2)C2CCN(c3ncc(C(F)(F)F)cc3F)CC2)cc1F` [Example 95, N-Cyclopropyl-3-fluoro-N-(3′-fluoro-5′-trifluoromethyl-3,4,5,6-tetrahydro-2H-[1,2′]bipyridinyl-4-yl)-4-(5-methyl-[1,2,4]triazol-1-yl)-benzamide] was run?
Its EC50 is 595 nM.

For `Cc1nccn1-c1ccc(C(=O)N(C2CC2)C2CCN(c3nc(C(C)C)no3)CC2)cc1` [Example 96, N-Cyclopropyl-N-[1-(3-isopropyl-[1,2,4]oxadiazol-5-yl)-piperidin-4-yl]-4-(2-methyl-imidazol-1-yl)-benzamide], which EC50 is on record?
Its EC50 is 1630 nM.

For `CC(C)c1noc(N2CCC(N(C(=O)c3ccc(-n4cncn4)cc3)C3CC3)CC2)n1` [Example 97, N-Cyclopropyl-N-[1-(3-isopropyl-[1,2,4]oxadiazol-5-yl)-piperidin-4-yl]-4-[1,2,4]triazol-1-yl-benzamide], which EC50 is on record?
Its EC50 is 170 nM.

With `Cc1nccn1-c1ccc(C(=O)N(C2CC2)C2CCN(c3nc(C(C)C)no3)CC2)cc1F` [Example 99, N-Cyclopropyl-3-fluoro-N-[1-(3-isopropyl-[1,2,4]oxadiazol-5-yl)-piperidin-4-yl]-4-(2-methyl-imidazol-1-yl)-benzamide] as the compound, how does the EC50 read?
The EC50 was 1740 nM.

For `CC(C)c1noc(N2CCC(N(C(=O)c3ccc(-n4cncn4)c(F)c3)C3CC3)CC2)n1` [Example 100, N-Cyclopropyl-3-fluoro-N-[1-(3-isopropyl-[1,2,4]oxadiazol-5-yl)-piperidin-4-yl]-4-[1,2,4]triazol-1-yl-benzamide], which EC50 is on record?
The EC50 was 45 nM.
